Like-named read-outs stand apart in the source and are kept apart here. Blank lines part the entries; values can stand above or below the compound they belong to.
What was measured:
[1] = Stability of folinic acid at higher pH during recrystallization; type: physicochemical; settings: pH above the 8.5 to 12 range of the first recrystallization
[2] = Solubility in water; type: physicochemical; settings: for solubility in water (in words): qualitative; for solubility: water
[3] = cited: J. A. Straw et al, Cancer Research 44, 3114 (1984); cited from earlier work
[4] = cited: J. A. Straw et al, Cancer Research 44, 3114 (1984); cited from earlier work; remark: listed apart in the source

stability at higher pH [1]: appreciably lower
SMILES: Nc1nc2c(c(=O)[nH]1)N(C=O)C(CNc1ccc(C(=O)N[C@@H](CCC(=O)O)C(=O)O)cc1)CN2 (stereo partly drawn) [folinic acid, N-(5-formyl-(6R,S)-5,6,7,8-tetrahydro-pteroyl)-L-glutamic acid]

solubility in water (in words) [2]: readily soluble
SMILES: Nc1nc(=O)c2c([nH]1)NC[C@H](CNc1ccc(C(=O)N[C@@H](CCC(=O)O)C(=O)O)cc1)N2C=O [Potassium-(6S)-folinate]

SMILES: Nc1nc2c(c(=O)[nH]1)N(C=O)[C@H](CNc1ccc(C(=O)N[C@@H](CCC(=O)O)C(=O)O)cc1)CN2 [5-CHO-(6R)-H4 PteGlu]
elimination through the urine [3]: slowly eliminated through the urine
metabolism [3]: barely metabolized
biochemical activity [4]: biochemically inactive

solubility in water (in words) [2]: readily soluble
SMILES: Nc1nc(=O)c2c([nH]1)NC[C@H](CNc1ccc(C(=O)N[C@@H](CCC(=O)O)C(=O)O)cc1)N2C=O [Sodium-(6S)-folinate]

solubility in water (in words) [2]: barely soluble
SMILES: Nc1nc(=O)c2c([nH]1)NC[C@H](CNc1ccc(C(=O)N[C@@H](CCC(=O)O)C(=O)O)cc1)N2C=O [(6S)-folinic acid, N-(5-formyl-(6S)-5,6,7,8-tetrahydro-pteroyl)-L-glutamic acid]

Solubility in water ([2]; at 20° C.): 2.4 g/100 ml
solubility ([2]; general statement in description, temperature not given, read-out: water solubility): > 20 mg/mL
SMILES: Nc1nc(=O)c2c([nH]1)NC[C@H](CNc1ccc(C(=O)N[C@@H](CCC(=O)O)C(=O)O)cc1)N2C=O [magnesium-(6S)-folinate, Magnesium-(6S)-folinate]

strength of aqueous solution that can be formed ([2]; at 20° C., aqueous solution): 0.95%
solubility ([2]; at 40° C., read-out: Solubility in water): 15 mg/mL
SMILES: Nc1nc(=O)c2c([nH]1)NC[C@H](CNc1ccc(C(=O)N[C@@H](CCC(=O)O)C(=O)O)cc1)N2C=O [calcium-(6S)-folinate, Calcium-(6S)-folinate]
